Tested on: brain
Assay: Maturation of TTM-001 capsid, NGS enrichment in brain of CD-1 Outbred mice
Type: in vivo
Conditions: NGS fold-enrichment of TTM-001 matured AAV capsid variants in the brain of CD-1 Outbred mice; intravenous 1.0×10^12 VG/dose; 14 days in life; RNA; relative to non-matured TTM-001 control
Text: This Example describes maturation of the TTM-001 (SEQ ID NO: 981 (amino acid) and 983 (DNA), comprising SEQ ID NO: 941) and TTM-002 (SEQ ID NO: 982 (amino acid) and 984 (DNA), comprising SEQ ID NO: 2) capsid variants to further enhance their transduction and biodistribution in the central nervous system and evolve the AAV capsid variants to provide further cross-species compatibility. Two approaches were used to mature the TTM-001 and TTM-002 capsid sequences in order to randomize and mutate within and around the peptide insert comprised within loop IV of the capsid variant. […] In the first maturation approach, sets of three contiguous amino acids were randomized across the mutagenesis region in the TTM-001 and TTM-002 sequences, which spanned from position 450 to position 466, numbered according to SEQ ID NO: 981 and 982. In the second maturation approach, mutagenic primers were used to introduce point mutations at a low frequency, scattered across the mutagenesis region in the TTM-001 and TTM-002 sequences ranging from position 449 to position 466, numbered according to SEQ ID NO: 981 and 982. AAV capsid variants arising from each maturation approach for TTM-001 were pooled together and AAV capsid variants arising from each maturation approach for TTM-002 were also pooled together, for subsequent testing and characterization in mice.
The library of pooled matured AAV capsid variants generated from TTM-001 or library of pooled matured AAV capsid variants generated from the TTM-002 matured AAV capsid variant each were intravenously injected into the tail vein of three female CD-1 Outbred mice (Charles River) at a dose of 1.0×10^12 VG/dose. After 14-days in life, the brains of the mice were isolated and RNA was extracted. Following RNA recovery and RT-PCR amplification, a systematic NGS enrichment analysis was performed to calculate the fold enrichment ratio relative to the corresponding TTM-001 or TTM-002 control, and the peptides comprised within the variants were identified. The data for the TTM-001 matured capsid variants is provided in Table 13 and the data for the TTM-002 matured capsid variants is provided in Table 14.

Sequence: KTINGHLSPHRKAQNQQT
- Fold enrichment over TTM-001: 2.851 fold

Sequence: KTINSRFSPHSKAQNQQT
- Fold enrichment over TTM-001: 2.032 fold

Sequence: KTINGSGSPHSKCLNQQT
- Fold enrichment over TTM-001: 2.594 fold

Sequence: KTINGSGSPHSKAQSLKT
- Fold enrichment over TTM-001: 2.110 fold

Sequence: KTINGSGSPHSKKGGQQT
- Fold enrichment over TTM-001: 2.009 fold

Sequence: KTINGSMSPHLYAQNQQT
- Fold enrichment over TTM-001: 2.354 fold

Sequence: KTINGSGSPHSKRTYQQT
- Fold enrichment over TTM-001: 2.870 fold

Sequence: KTINGALSPHRKAQNQQT
- Fold enrichment over TTM-001: 2.203 fold

Sequence: KTINGSGSPHVLWQNQQT
- Fold enrichment over TTM-001: 4.533 fold

Sequence: KTINGSPSPHRRAQNQQT
- Fold enrichment over TTM-001: 3.216 fold

Sequence: KTINGSGSPHSLWLNQQT
- Fold enrichment over TTM-001: 4.412 fold

Sequence: KTINGSGSPHSKAQLRKT
- Fold enrichment over TTM-001: 2.689 fold

Sequence: KQPLGSGSPHSKAQNQQT
- Fold enrichment over TTM-001: 2.024 fold

Sequence: KTINGSGSPHLSWQNQQT
- Fold enrichment over TTM-001: 3.047 fold

Sequence: KTINGSGSPHRFRQNQQT
- Fold enrichment over TTM-001: 3.698 fold

Sequence: KYLLGSGSPHSKAQNQQT (peptide inserted in AAV capsid)
- Fold enrichment over TTM-001: 2.253 fold

Sequence: KTINGSGSPHSVSWNQQT
- Fold enrichment over TTM-001: 2.223 fold

Sequence: KTINGSGSPHPYAQNQQT
- Fold enrichment over TTM-001: 2.598 fold

Sequence: KTINGFRSPHSKAQNQQT
- Fold enrichment over TTM-001: 2.333 fold

Sequence: KTINGSGSPHSKCLTQQT
- Fold enrichment over TTM-001: 2.644 fold

Sequence: KTINGSGSPHSKAQTNRT
- Fold enrichment over TTM-001: 2.510 fold

Sequence: KTINGSGSPHSKARLYQT
- Fold enrichment over TTM-001: 2.201 fold

Sequence: KTINGSGSPHSKTLRQQT
- Fold enrichment over TTM-001: 3.788 fold

Sequence: KTINGSKSPHRLAQNQQT
- Fold enrichment over TTM-001: 3.073 fold

Sequence: KTINGSGSPHSKAQGFRT
- Fold enrichment over TTM-001: 2.279 fold

Sequence: KTINGSGSPHSRTRNQQT
- Fold enrichment over TTM-001: 2.912 fold

Sequence: KTINGSGSPHSKAQNRIR
- Fold enrichment over TTM-001: 2.039 fold

Sequence: KTINGSGSPHTLYQNQQT
- Fold enrichment over TTM-001: 3.117 fold

Sequence: KTINGSGSPHSRRVNQQT
- Fold enrichment over TTM-001: 2.676 fold

Sequence: KTINGSGSPHSLTWNQQT
- Fold enrichment over TTM-001: 2.698 fold

Sequence: KTINGSGSPHSVFLNQQT
- Fold enrichment over TTM-001: 2.069 fold

Sequence: KTINGSGSPHSKGCLQQT
- Fold enrichment over TTM-001: 2.320 fold

Sequence: KPLPGSGSPHSKAQNQQT
- Fold enrichment over TTM-001: 2.495 fold

Sequence: KTINGSLSPHIYAQNQQT
- Fold enrichment over TTM-001: 2.536 fold

Sequence: KTINGSGSPHSKASRHQT
- Fold enrichment over TTM-001: 2.324 fold

Sequence: KTINGSGSPHSKAQSVKT
- Fold enrichment over TTM-001: 2.464 fold

Sequence: KTINGSGSPHSSLWNQQT
- Fold enrichment over TTM-001: 3.179 fold

Sequence: KDSLGSGSPHSKAQNQQT
- Fold enrichment over TTM-001: 2.175 fold

Sequence: KTINGSCSPHPLAQNQQT
- Fold enrichment over TTM-001: 3.086 fold

Sequence: KTINGSGSPHSKGRSQQT
- Fold enrichment over TTM-001: 2.080 fold

Sequence: KTINGSGSPHRTRQNQQT
- Fold enrichment over TTM-001: 3.190 fold

Sequence: KTINGSASPHVFAQNQQT
- Fold enrichment over TTM-001: 2.186 fold

Sequence: KTINGSGSPHSKAQVSKT
- Fold enrichment over TTM-001: 3.406 fold

Sequence: KTINGRSSPHGKAQNQQT
- Fold enrichment over TTM-001: 3.035 fold

Sequence: KTINGSGSPHSKGRAQQT
- Fold enrichment over TTM-001: 2.607 fold

Sequence: KTINGSGSPHSKRRNQQT
- Fold enrichment over TTM-001: 2.877 fold

Sequence: KTINGSGSPHSKAQLSIT
- Fold enrichment over TTM-001: 2.784 fold

Sequence: KTINGSGSPHSTWLNQQT
- Fold enrichment over TTM-001: 3.583 fold

Sequence: KTINGSGSPHRLRQNQQT
- Fold enrichment over TTM-001: 2.998 fold

Sequence: KHRSGSGSPHSKAQNQQT
- Fold enrichment over TTM-001: 2.456 fold

Sequence: KTINGSGSPHSPLWNQQT
- Fold enrichment over TTM-001: 2.562 fold

Sequence: KTINGSGSPHSKAQEELT
- Fold enrichment over TTM-001: 2.162 fold

Sequence: KTINGSGSPHSKHLRQQT
- Fold enrichment over TTM-001: 3.438 fold

Sequence: KTINGSGSPHSKRATQQT
- Fold enrichment over TTM-001: 2.283 fold

Sequence: KTINGSGSPHSKATRNQT
- Fold enrichment over TTM-001: 2.756 fold

Sequence: KTINGLLSPHWKAQNQQT
- Fold enrichment over TTM-001: 4.173 fold

Sequence: KTINGSGSPHWSVQNQQT
- Fold enrichment over TTM-001: 2.138 fold

Sequence: KTINGSGSPHSKAVWRQT
- Fold enrichment over TTM-001: 2.026 fold

Sequence: KTINGSGSPHSLRYNQQT
- Fold enrichment over TTM-001: 2.462 fold

Sequence: KTINGSVSPHYLAQNQQT (peptide inserted in AAV capsid)
- Fold enrichment over TTM-001: 2.203 fold

Sequence: KTINGSGSPHSKCTLQQT
- Fold enrichment over TTM-001: 2.808 fold

Sequence: KTINGSGSPHSKARRQQT
- Fold enrichment over TTM-001: 4.218 fold

Sequence: KTINGSGSPHSKLRPQQT
- Fold enrichment over TTM-001: 2.060 fold

Sequence: KTINGSGSPHSKAQASKT
- Fold enrichment over TTM-001: 2.546 fold

Sequence: KTINGSPSPHYLAQNQQT
- Fold enrichment over TTM-001: 2.391 fold

Sequence: KTRRSSGSPHSKAQNQQT
- Fold enrichment over TTM-001: 2.438 fold

Sequence: KTINGRTSPHAKAQNQQT
- Fold enrichment over TTM-001: 2.060 fold

Sequence: KTINGSGSPHFMRQNQQT
- Fold enrichment over TTM-001: 2.123 fold

Sequence: KTINGSGSPHSKAFRLQT
- Fold enrichment over TTM-001: 4.849 fold

Sequence: KTINGSCSPHLRAQNQQT
- Fold enrichment over TTM-001: 2.423 fold

Sequence: KTINGHRSPHLKAQNQQT
- Fold enrichment over TTM-001: 2.320 fold

Sequence: KTINGSGSPHSKLRRQQT
- Fold enrichment over TTM-001: 6.231 fold

Sequence: KTINGSGSPHSKAQITLT
- Fold enrichment over TTM-001: 3.177 fold

Sequence: KTINGSGSPHSKARGTQT
- Fold enrichment over TTM-001: 2.505 fold

Sequence: KTINGSKSPHRTAQNQQT
- Fold enrichment over TTM-001: 2.950 fold

Sequence: KTINGTPSPHRKAQNQQT
- Fold enrichment over TTM-001: 2.244 fold

Sequence: KTINGSGSPHRRSQNQQT
- Fold enrichment over TTM-001: 2.497 fold

Sequence: KTINGSGSPHSKAFRPQT
- Fold enrichment over TTM-001: 2.499 fold

Sequence: KTINGSGSPHSKGVRQQT
- Fold enrichment over TTM-001: 2.115 fold

Sequence: KTINGSGSPHLLFQNQQT
- Fold enrichment over TTM-001: 2.069 fold

Sequence: KTINGYLSPHRKAQNQQT
- Fold enrichment over TTM-001: 2.762 fold

Sequence: KTINGSGSPHSKARFSQT
- Fold enrichment over TTM-001: 2.253 fold

Sequence: KTINGSGSPHGWAQNQQT
- Fold enrichment over TTM-001: 2.121 fold

Sequence: KTINGSGSPHELPQNQQT (KTINGSGSPHFLPQNQQT)
- Fold enrichment over TTM-001: 2.123 fold

Sequence: KTINGSGSPHSKEETQQT
- Fold enrichment over TTM-001: 2.223 fold

Sequence: KTINGSRSPHARAQNQQT (peptide inserted in AAV capsid)
- Fold enrichment over TTM-001: 2.745 fold
